Test results as given in ChEMBL document CHEMBL1135042, “Structure-activity relationships for analogues of the phenazine-based dual topoisomerase I/II inhibitor XR11576” (Bioorg Med Chem Lett, 2002).

What was measured:
[1] = test system: NCI-H69; assay: In vitro cytotoxicity against human small cell lung carcinoma H69/P.; type: functional, cell-based
[2] = test system: NCI-H69; assay: In vitro cytotoxicity against multi-drug resistant human small cell lung carcinoma H69/LX4.; type: functional, cell-based
[3] = Ratio of IC50 values against H69/P and […] cell lines.; type: functional

Row | Compound | IC50 [1] [nM] | IC50 [2] [nM] | Ratio [3]
1 | CN(C)CCNC(=O)c1cccc2nc3c(nc12)-c1cccc2cccc-3c12 | 350 | 330 | 0.93
2 | CN(C)CCNC(=O)c1cc2cc(OCCN3CCOCC3)ccc2c2nc3ccccc3nc12 | 506 | 592 | 1.17
3 | CN(C)CCNC(=O)c1cc2cc(O)ccc2c2nc3ccccc3nc12 | 94 | 198 | 2.12
4 | CN(C)CCNC(=O)c1cccc2ncc(-c3ccc([N+](=O)[O-])cc3)nc12 | 2400 | 3380 | 1.41
5 | COc1cccc2c1ccc1nc3cccc(C(=O)N[C@@H](C)CN(C)C)c3nc12 | 20 | 20 | –
6 | CN(C)CCNC(=O)c1cccc2ncc(-c3ccccc3)nc12 | 3930 | 3590 | 0.9
7 | CC/N=C(\S)Oc1ccc2c(c1)cc(C(=O)NCCN(C)C)c1nc3ccccc3nc12 | 519 | 583 | 1.12
8 | Cc1cccc2nc3c(nc12)c(C(=O)NCCN(C)C)cc1ccccc13 | 417 | 320 | 0.8
9 | CN(C)CCNC(=O)c1cc2cccc([N+](=O)[O-])c2c2nc3ccccc3nc12 | 458 | 584 | 1.3
10 | CN(C)CCNC(=O)c1cc2ccccc2c2nc3ccccc3nc12 | 406 | 511 | 1.26
11 | C#CCOc1ccc2c(c1)cc(C(=O)NCCN(C)C)c1nc3ccccc3nc12 | 435 | 613 | 1.4
12 | CN(C)CCNC(=O)c1cccc2nc(-c3ccccc3)c(-c3ccccc3)nc12 | > 100000 | > 100000 | –
13 | CN(C)CCNC(=O)c1cc2cccc(N)c2c2nc3ccccc3nc12 | 259 | 345 | 1.33
14 | CN(C)CCNC(=O)c1cccc2ncc(-c3ccc4ccccc4c3)nc12 | 1820 | 1670 | 0.92
15 | COc1ccc2c(c1)cc(C(=O)NCCN(C)C)c1nc3ccccc3nc12 | 282 | 358 | 1.3
16 | COCCOc1ccc2c(c1)cc(C(=O)NCCN(C)C)c1nc3ccccc3nc12 | 445 | 545 | 1.23
17 | CN(C)CCNC(=O)c1cc2cc(OCc3ccccc3)ccc2c2nc3ccccc3nc12 | 1220 | 1580 | 1.29
18 | CN(C)CCNC(=O)c1cc2cc(OC(=O)Nc3ccccc3)ccc2c2nc3ccccc3nc12 | 104 | 252 | 2.42
19 | CN(C)CCNC(=O)c1cc2cc(OCCCO)ccc2c2nc3ccccc3nc12 | 523 | 2030 | 3.87
